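Five concentrations, 48 hours, 96-well plates. Here, GI50 denotes the concentration required for 50% inhibition of growth.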 Calls of active or inactive are those of the source. No stated cut-off is given here; in the data, active = GI50 up to about 1.1 µM and inactive = higher.
Columns and labels:
Assay in all cases: NCI tumour cell line growth inhibition, 48 h
786-0 = system: 786-0
A549 = system: A549
ACHN = system: ACHN
BT-549 = system: BT-549
CAKI-1 = system: CAKI-1
CCRF-CEM = system: CCRF-CEM
COLO 205 = system: COLO 205
DU-145 = system: DU-145
EKVX = system: EKVX
HCC 2998 = system: HCC 2998
HCT-116 = system: HCT-116
HCT-15 = system: HCT-15
HL-60 = system: HL-60
HOP-62 = system: HOP-62
HOP-92 = system: HOP-92
HT-29 = system: HT-29
Hs-578T = system: Hs-578T
IGROV-1 = system: IGROV-1
K562 = system: K562
KM12 = system: KM12
LOX IMVI = system: LOX IMVI
M14 = system: M14
MCF7 = system: MCF7
MDA-MB-231 = system: MDA-MB-231
MDA-MB-435 = system: MDA-MB-435
MDA-N = system: MDA-N
MOLT-4 = system: MOLT-4
Malme-3M = system: Malme-3M
NCI-H226 = system: NCI-H226
NCI-H23 = system: NCI-H23
NCI-H460 = system: NCI-H460
NCI-H522 = system: NCI-H522
NCI/ADR-RES = system: NCI/ADR-RES
OVCAR-3 = system: OVCAR-3
OVCAR-4 = system: OVCAR-4
OVCAR-5 = system: OVCAR-5
OVCAR-8 = system: OVCAR-8
PC-3 = system: PC-3
RPMI-8226 = system: RPMI-8226
RXF 393 = system: RXF 393
SF-268 = system: SF-268
SF-295 = system: SF-295
SF-539 = system: SF-539
SK-MEL-28 = system: SK-MEL-28
SK-MEL-2 = system: SK-MEL-2
SK-MEL-5 = system: SK-MEL-5
SK-OV-3 = system: SK-OV-3
SN12C = system: SN12C
SNB-19 = system: SNB-19
SNB-75 = system: SNB-75
SR = system: SR
SW-620 = system: SW-620
T47D = system: T47D
TK-10 = system: TK-10
U-251 = system: U-251
UACC-257 = system: UACC-257
UACC-62 = system: UACC-62
UO-31 = system: UO-31
A498 = system: A498

Nc1nccc(-c2c[nH]c3cc(Br)ccc23)n1 [MERIDIANIN D]
GI50 (786-0): 21.5 µM (inactive) | GI50 (A549): 15.7 µM (inactive) | GI50 (ACHN): 19.8 µM (inactive) | GI50 (BT-549): 31.2 µM (inactive) | GI50 (CAKI-1): 12.6 µM (inactive) | GI50 (CCRF-CEM): 41.1 µM (inactive) | GI50 (COLO 205): 18.7 µM (inactive) | GI50 (DU-145): 34.5 µM (inactive) | GI50 (EKVX): 1.59 µM (inactive) | GI50 (HCC 2998): 25.1 µM (inactive) | GI50 (HCT-116): 18.6 µM (inactive) | GI50 (HCT-15): 25.1 µM | GI50 (HL-60): 29.2 µM (inactive) | GI50 (HOP-62): 30 µM (inactive) | GI50 (HOP-92): 23.7 µM (inactive) | GI50 (HT-29): 20.3 µM (inactive) | GI50 (Hs-578T): 25.9 µM (inactive) | GI50 (IGROV-1): 23.7 µM (inactive) | GI50 (K562): 33.5 µM (inactive) | GI50 (KM12): 24.2 µM (inactive) | GI50 (LOX IMVI): 25.3 µM (inactive) | GI50 (M14): 24.5 µM (inactive) | GI50 (MCF7): 19.9 µM (inactive) | GI50 (MDA-MB-231): 33.2 µM (inactive) | GI50 (MDA-MB-435): 26.5 µM (inactive) | GI50 (MDA-N): 21 µM (inactive) | GI50 (MOLT-4): 24.7 µM (inactive) | GI50 (Malme-3M): 34.8 µM (inactive) | GI50 (NCI-H226): 45.6 µM (inactive) | GI50 (NCI-H23): 25.2 µM (inactive) | GI50 (NCI-H460): 30 µM (inactive) | GI50 (NCI-H522): 17.7 µM (inactive) | GI50 (NCI/ADR-RES): 30.8 µM (inactive) | GI50 (OVCAR-3): 28.8 µM (inactive) | GI50 (OVCAR-4): 48.9 µM (inactive) | GI50 (OVCAR-5): 17.5 µM (inactive) | GI50 (OVCAR-8): 35.7 µM (inactive) | GI50 (PC-3): 30.1 µM (inactive) | GI50 (RPMI-8226): 22.6 µM (inactive) | GI50 (RXF 393): 15.5 µM (inactive) | GI50 (SF-268): 31 µM (inactive) | GI50 (SF-295): 35.3 µM (inactive) | GI50 (SF-539): 32.6 µM (inactive) | GI50 (SK-MEL-28): 30.5 µM (inactive) | GI50 (SK-MEL-2): 20 µM (inactive) | GI50 (SK-MEL-5): 18.9 µM (inactive) | GI50 (SK-OV-3): 29.1 µM (inactive) | GI50 (SN12C): 21.7 µM (inactive) | GI50 (SNB-19): 20.7 µM (inactive) | GI50 (SNB-75): 20.5 µM (inactive) | GI50 (SR): 17.3 µM (inactive) | GI50 (SW-620): 33.3 µM (inactive) | GI50 (T47D): 30.4 µM (inactive) | GI50 (TK-10): 22.3 µM (inactive) | GI50 (U-251): 30.8 µM (inactive) | GI50 (UACC-257): 30.2 µM (inactive) | GI50 (UACC-62): 22 µM (inactive) | GI50 (UO-31): 18.7 µM (inactive)

N=C(NCc1ccccc1)N/N=C\c1ccnc2ccccc12
GI50 (786-0): 13.7 µM (inactive) | GI50 (A498): 12.5 µM (inactive) | GI50 (A549): 15 µM (inactive) | GI50 (ACHN): 15.3 µM (inactive) | GI50 (BT-549): 4.56 µM (inactive) | GI50 (CCRF-CEM): 1.87 µM (inactive) | GI50 (COLO 205): 1.71 µM (inactive) | GI50 (DU-145): 16.5 µM (inactive) | GI50 (EKVX): 10 µM (inactive) | GI50 (HCC 2998): 2.1 µM (inactive) | GI50 (HCT-15): 16 µM | GI50 (HL-60): 14.3 µM (inactive) | GI50 (HOP-62): 16 µM (inactive) | GI50 (HOP-92): 1.43 µM (inactive) | GI50 (HT-29): 11.2 µM (inactive) | GI50 (Hs-578T): 18.8 µM (inactive) | GI50 (K562): 4.31 µM (inactive) | GI50 (KM12): 15.9 µM (inactive) | GI50 (LOX IMVI): 11.5 µM (inactive) | GI50 (M14): 4.84 µM (inactive) | GI50 (MCF7): 11.7 µM (inactive) | GI50 (MDA-MB-231): 13.9 µM (inactive) | GI50 (MDA-MB-435): 9.23 µM (inactive) | GI50 (MDA-N): 10.9 µM (inactive) | GI50 (MOLT-4): 12.6 µM (inactive) | GI50 (Malme-3M): 10.2 µM (inactive) | GI50 (NCI-H226): 17.1 µM (inactive) | GI50 (NCI-H23): 15.7 µM (inactive) | GI50 (NCI-H460): 13.9 µM (inactive) | GI50 (NCI/ADR-RES): 15.8 µM (inactive) | GI50 (OVCAR-3): 11.6 µM (inactive) | GI50 (OVCAR-4): 11.7 µM (inactive) | GI50 (OVCAR-5): 13.4 µM (inactive) | GI50 (OVCAR-8): 13.5 µM (inactive) | GI50 (PC-3): 15.6 µM (inactive) | GI50 (RPMI-8226): 1.29 µM (inactive) | GI50 (SF-268): 12.3 µM (inactive) | GI50 (SF-295): 15.3 µM (inactive) | GI50 (SF-539): 15.7 µM (inactive) | GI50 (SK-MEL-28): 12 µM (inactive) | GI50 (SK-MEL-2): 9.73 µM (inactive) | GI50 (SK-MEL-5): 6.52 µM (inactive) | GI50 (SK-OV-3): 15.5 µM (inactive) | GI50 (SN12C): 15.1 µM (inactive) | GI50 (SNB-19): 17.9 µM (inactive) | GI50 (SNB-75): 8.04 µM (inactive) | GI50 (SR): 2.09 µM (inactive) | GI50 (SW-620): 14.8 µM (inactive) | GI50 (T47D): 1.41 µM (inactive) | GI50 (TK-10): 14.8 µM (inactive) | GI50 (U-251): 15.6 µM (inactive) | GI50 (UACC-257): 2.35 µM (inactive) | GI50 (UACC-62): 15.1 µM (inactive) | GI50 (UO-31): 10.4 µM (inactive)

[N-]=[N+]=NCC1OCC(O)C(OCc2ccccc2)C1OCc1ccccc1 (stereo not given)
GI50 (786-0): 81.5 µM (inactive) | GI50 (A498): > 100 µM (inactive) | GI50 (A549): 70 µM (inactive) | GI50 (ACHN): > 100 µM (inactive) | GI50 (BT-549): 28.9 µM (inactive) | GI50 (CAKI-1): > 100 µM (inactive) | GI50 (CCRF-CEM): 83.4 µM (inactive) | GI50 (COLO 205): > 100 µM (inactive) | GI50 (DU-145): 86.7 µM (inactive) | GI50 (EKVX): 48.4 µM (inactive) | GI50 (HCC 2998): 72.8 µM (inactive) | GI50 (HCT-116): 95.9 µM (inactive) | GI50 (HCT-15): 61 µM | GI50 (HL-60): 70.6 µM (inactive) | GI50 (HOP-62): > 100 µM (inactive) | GI50 (HOP-92): 65.3 µM (inactive) | GI50 (HT-29): 36.3 µM (inactive) | GI50 (Hs-578T): > 100 µM (inactive) | GI50 (IGROV-1): 79.3 µM (inactive) | GI50 (K562): 51.4 µM (inactive) | GI50 (KM12): 41 µM (inactive) | GI50 (LOX IMVI): > 100 µM (inactive) | GI50 (M14): > 100 µM (inactive) | GI50 (MCF7): > 100 µM (inactive) | GI50 (MDA-MB-231): > 100 µM (inactive) | GI50 (MDA-MB-435): > 100 µM (inactive) | GI50 (MDA-N): > 100 µM (inactive) | GI50 (MOLT-4): 37.1 µM (inactive) | GI50 (Malme-3M): > 10 µM (inactive) | GI50 (NCI-H226): 55 µM (inactive) | GI50 (NCI-H23): > 100 µM (inactive) | GI50 (NCI-H460): 48.2 µM (inactive) | GI50 (NCI-H522): 70 µM (inactive) | GI50 (NCI/ADR-RES): > 100 µM (inactive) | GI50 (OVCAR-3): > 100 µM (inactive) | GI50 (OVCAR-4): > 100 µM (inactive) | GI50 (OVCAR-5): > 100 µM (inactive) | GI50 (OVCAR-8): > 100 µM (inactive) | GI50 (PC-3): 73.1 µM (inactive) | GI50 (RPMI-8226): > 100 µM (inactive) | GI50 (SF-268): > 100 µM (inactive) | GI50 (SF-295): 79.3 µM (inactive) | GI50 (SF-539): > 100 µM (inactive) | GI50 (SK-MEL-28): > 100 µM (inactive) | GI50 (SK-MEL-2): 39.4 µM (inactive) | GI50 (SK-MEL-5): 95.9 µM (inactive) | GI50 (SK-OV-3): > 100 µM (inactive) | GI50 (SN12C): > 100 µM (inactive) | GI50 (SNB-19): > 100 µM (inactive) | GI50 (SNB-75): 20.5 µM (inactive) | GI50 (SR): 57.1 µM (inactive) | GI50 (SW-620): > 100 µM (inactive) | GI50 (T47D): 25.1 µM (inactive) | GI50 (TK-10): > 100 µM (inactive) | GI50 (U-251): > 100 µM (inactive) | GI50 (UACC-257): 66.8 µM (inactive) | GI50 (UACC-62): 31.9 µM (inactive) | GI50 (UO-31): 65.2 µM (inactive)

— ChEMBL document CHEMBL1201862, “PubChem BioAssay data set” (2004)
